Assay results as given in patent publication US7507860B2 (Pfizer Inc., priority 2004, dated 2009).
Where a chain is given by its changes, count along the chain named. pIC50: −log10 of the molar value. Read-outs that look alike come from different tables or passages of the source.

Columns and labels:
[1] = biological target: T1, human androgen receptor (hAR) (Homo sapiens, UniProt P10275); test: Competitive binding analysis on baculovirus/Sf9 generated hAR extracts with 3H-DHT tracer; details: hAR extract, 1 nM 3H-DHT, one hour at 4° C; mean of multiple tests; read-out: AR Binding IC50
T1 construct: made in house; host or cells: baculovirus/Sf9 insect cells (crude extract)
T1 sequence (P10275 1-920): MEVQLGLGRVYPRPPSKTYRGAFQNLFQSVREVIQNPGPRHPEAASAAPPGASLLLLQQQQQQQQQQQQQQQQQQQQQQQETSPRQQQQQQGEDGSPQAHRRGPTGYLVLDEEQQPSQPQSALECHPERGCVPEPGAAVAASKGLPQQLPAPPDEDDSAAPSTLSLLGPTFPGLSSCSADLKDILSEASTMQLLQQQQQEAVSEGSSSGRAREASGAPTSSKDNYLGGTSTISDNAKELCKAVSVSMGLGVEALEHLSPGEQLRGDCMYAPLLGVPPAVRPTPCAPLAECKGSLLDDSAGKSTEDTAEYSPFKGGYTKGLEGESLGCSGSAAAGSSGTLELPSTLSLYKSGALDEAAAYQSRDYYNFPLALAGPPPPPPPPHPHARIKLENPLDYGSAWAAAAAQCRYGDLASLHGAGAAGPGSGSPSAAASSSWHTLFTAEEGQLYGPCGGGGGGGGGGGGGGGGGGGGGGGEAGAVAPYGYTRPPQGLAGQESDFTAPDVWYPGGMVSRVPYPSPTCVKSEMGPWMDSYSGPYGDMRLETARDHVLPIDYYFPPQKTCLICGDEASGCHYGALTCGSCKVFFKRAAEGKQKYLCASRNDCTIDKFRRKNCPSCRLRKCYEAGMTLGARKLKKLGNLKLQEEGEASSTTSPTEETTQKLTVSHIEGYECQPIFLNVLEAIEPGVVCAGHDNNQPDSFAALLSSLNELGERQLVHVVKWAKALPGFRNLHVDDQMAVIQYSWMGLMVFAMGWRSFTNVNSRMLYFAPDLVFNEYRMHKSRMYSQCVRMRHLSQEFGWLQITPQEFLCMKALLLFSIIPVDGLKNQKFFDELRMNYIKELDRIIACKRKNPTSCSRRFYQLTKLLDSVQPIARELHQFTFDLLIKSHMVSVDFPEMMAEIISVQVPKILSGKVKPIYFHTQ
Method: The compounds of Formula I have affinity for the androgen receptor. […] The description below describes how the assay was carried out.
Competitive binding analysis was performed on baculovirus/Sf9 generated hAR extracts in the presence or absence of different concentrations of test agent and a fixed concentration of ^3H-dihydrotestosterone (^3H-DHT) as tracer. This binding assay method is a modification of a protocol previously described (Liao S., et. al. J. Steroid Biochem. 20:11-17 1984). Briefly, progressively decreasing concentrations of compounds are incubated in the presence of hAR extract (Chang et al. P.N.A.S. Vol. 89, pp. […], 1992), hydroxylapatite, and 1 nM^3H-DHT for one hour at 4° C. Subsequently, the binding reactions are washed three times to completely remove excess unbound ^3H-DHT. hAR bound ^3H-DHT levels are determined in the presence of compounds (=i.e competitive binding) and compared to levels bound when no competitor is present (=i.e. maximum binding). Compound binding affinity to the hAR is expressed as the concentration of compound at which one half of the maximum binding is inhibited. Table II below provides the results that were obtained for selected compounds (reported data is the mean of multiple tests as shown below)

androgen receptor = biological target: T2, androgen receptor (Homo sapiens, UniProt P10275); test: AR antagonist cell assay (MDA-MB453-MMTV clone 54-19 luciferase reporter, 100 pM DHT); type: cell-based
T2 sequence (P10275 1-920 Q868H): T1 sequence (P10275 1-920) with Q868H
Method: The compounds ability to antagonize the effects of androgen on the androgen receptor were determined in a whole cell assay as described immediately below.
Experimental Procedure for AR Antagonist Cell Assay
This cell line is a stable transfected cell line with MDA-MB453 cell background (a human breast tumor cell line expressing androgen receptor). A MMTV minimal promoter containing ARE was first cloned in front of a firefly luciferase reporter gene. Then the cascade was cloned into transfection vector pUV120puro. […] Puromycin resistant stable cell line was selected. Cell Culture Media and Reagents:
Plating medium: DMEM (phenol red free), 10% charcoal treated HyClone serum, 1% L-glutamine
Assay medium: DMEM (phenol red free), 1% charcoal treated HyClone serum, 1% L-glutamine, and 1% penicillin/streptomycin
• 1. Cells are maintained in culture medium, splitting cells when they reach 80-90% confluence • 2. To test compounds, 10,000 cells/well are plated to opaque 96 cell culture plate in 100 ul/well plating medium, culture for overnight at 37° C. in cell culture incubator • 3. […] Add 10 ul/well freshly prepared DHT (final concentration at 100 pM) to each well, incubate at 37° C. for 17 hr (overnight) • 5.
The results are reported as the mean of multiple tests as described below (the numbers of tests are indicated in the footnote). N.D. denotes that the compound was not tested.

[2] = MDA-MB453-MMTV clone 54-19, inhibition of 100 pM DHT induction, 17 hr; mean of multiple tests; read-out: AR Cell IC50

CC(C)CC(Oc1ccc(C#N)c(C(F)(F)F)c1)C(=O)N[C@H](C)c1ccc(O)cc1 (stereo in doubt) [Example 117, 2-(4-Cyano-3-trifluoromethyl-phenoxy)-4-methyl-pentanoic acid [1-(4-hydroxy-phenyl)-ethyl]-amide]
pIC50 [1]: 6.94
pIC50 (androgen receptor; read-out: AR Cell IC50; MDA-MB453-MMTV clone 54-19, inhibition of 100 pM DHT induction, 17 hr; mean of multiple tests): 7.72

CCCC(Oc1ccc(C#N)c(C(F)(F)F)c1)C(=O)N[C@@H](C)c1ccc(O)cc1 (stereo in doubt) [Example 118, 2-(4-Cyano-3-trifluoromethyl-phenoxy)-pentanoic acid [1-(4-hydroxy-phenyl)-ethyl]-amide]
pIC50 [1]: 6.00
pIC50 (androgen receptor; [2]): 6.23

CCCC(Oc1ccc(C#N)c(C(F)(F)F)c1)C(=O)N[C@H](C)c1ccc(O)cc1 (stereo in doubt) [Example 119, 2-(4-Cyano-3-trifluoromethyl-phenoxy)-pentanoic acid [1-(4-hydroxy-phenyl)-ethyl]-amide]
pIC50 [1]: 7.07
pIC50 (androgen receptor; [2]): 6.93

CC(C)CC(Oc1ccc(C#N)c(C(F)(F)F)c1)C(=O)N[C@@H](C)c1ccc(O)cc1 (stereo in doubt) [Example 120, 2-(4-Cyano-3-trifluoromethyl-phenoxy)-4-methyl-pentanoic acid [1-(4-hydroxy-phenyl)-ethyl]-amide]
pIC50 [1]: 7.01
pIC50 (androgen receptor; [2]): 7.36

COc1ccc([C@H](C)NC(=O)C(CC(C)C)Oc2ccc(C#N)c(C(F)(F)F)c2)cc1 (stereo in doubt) [Example 121, 2-(4-Cyano-3-trifluoromethyl-phenoxy)-4-methyl-pentanoic acid [1-(4-methoxy-phenyl)-ethyl]-amide]
pIC50 [1]: 6.84
pIC50 (androgen receptor; [2]): 6.80

CCCC(Oc1ccc(C#N)c(C(F)(F)F)c1)C(=O)N[C@H](C)c1ccc(OC)cc1 (stereo in doubt) [Example 123, 2-(4-Cyano-3-trifluoromethyl-phenoxy)-pentanoic acid [1-(4-methoxy-phenyl)-ethyl]-amide]
pIC50 [1]: 6.19
pIC50 (androgen receptor; [2]): 6.17

CCCC(Oc1ccc(C#N)c(C(F)(F)F)c1)C(=O)N(Cc1ccccc1)C(C)C (centres unmarked) [Example 67, 2-(4-Cyano-3-trifluoromethyl-phenoxy)-pentanoic acid benzyl-isopropyl-amide]
pIC50 [1]: 6.36

CC(C)CC(Oc1ccc(C#N)c(C(F)(F)F)c1)C(=O)NC(C)c1ccc(O)cc1 (centres unmarked) [Example 69, 2-(4-Cyano-3-trifluoromethyl-phenoxy)-4-methyl-pentanoic acid [1-(4-hydroxyphenyl)-ethyl]-amide]
pIC50 [1]: 6.47

CC(C)CC(Oc1ccc(C#N)c(C(F)(F)F)c1)C(=O)NCc1ccc(C(C)C)cc1 (centres unmarked) [Example 70, 2-(4-Cyano-3-trifluoromethyl-phenoxy)-4-methyl-pentanoic acid 4-isopropyl-benzylamide]
pIC50 [1]: 6.60

COc1cccc(CNC(=O)C(CC(C)C)Oc2ccc(C#N)c(C(F)(F)F)c2)c1 (centres unmarked) [Example 71, 2-(4-Cyano-3-trifluoromethyl-phenoxy)-4-methyl-pentanoic acid-3-methoxy-benzylamide]
pIC50 [1]: 6.54

CCC(C)CNC(=O)C(CC(C)C)Oc1ccc(C#N)c(C(F)(F)F)c1 (centres unmarked) [Example 75, 2-(4-Cyano-3-trifluoromethyl-phenoxy)-4-methyl-pentanoic acid-(2-methyl-butyl)amide]
pIC50 [1]: 6.38

Cc1ncccc1CNC(=O)C(CC(C)C)Oc1ccc(C#N)c(C(F)(F)F)c1 (centres unmarked) [Example 76, 2-(4-Cyano-3-trifluoromethyl-phenoxy)-4-methyl-pentanoic acid (2-methyl-pyridin-3-yl-methyl)-amide]
pIC50 [1]: 6.32

CCCC(Oc1ccc(C#N)c(C(F)(F)F)c1)C(=O)NCc1cccc2ccccc12 (centres unmarked) [Example 77, 2-(4-Cyano-3-trifluoromethyl-phenoxy)-pentanoic acid (naphthalene-1-yl-methyl)amide]
pIC50 [1]: 6.53

Cc1ccc(NC(=O)C(CC(C)C)Oc2ccc(C#N)c(C(F)(F)F)c2)cc1O (centres unmarked) [Example 88, 2-(4-Cyano-3-trifluoromethyl-phenoxy)-4-methyl-pentanoic acid (3-hydroxy-4-methyl-phenyl)-amide]
pIC50 [1]: 6.53

CCCC(Oc1ccc(C#N)c(C(F)(F)F)c1)C(=O)NCCCSC (centres unmarked) [Example 89, 2-(4-Cyano-3-trifluoromethyl-phenoxy)-pentanoic acid (3-methylsulfanyl-propyl)amide]
pIC50 [1]: 6.31

CCCC(Oc1ccc(C#N)c(C(F)(F)F)c1)C(=O)NCCSC (centres unmarked) [Example 90, 2-(4-Cyano-3-trifluoromethyl-phenoxy)-pentanoic acid (2-methylsulfanyl-ethyl)amide]
pIC50 [1]: 6.13

COc1ccc2[nH]cc(CCNC(=O)C(CC(C)C)Oc3ccc(C#N)c(C(F)(F)F)c3)c2c1 (centres unmarked) [Example 98, 2-(4-Cyano-3-trifluoromethyl-phenoxy)-4-methyl-pentanoic acid [2-(5-methoxy-1H-indol-3-yl)-ethyl]-amide]
pIC50 [1]: 6.55

CCCC(Oc1ccc(C#N)cc1Cl)C(=O)OCC (centres unmarked) [Example 100, 2-(2-Chloro-4-cyano-phenoxy)-pentanoic acid ethyl ester]
pIC50 [1]: 6.46

CCCOCCCNC(=O)C(CCC)Oc1ccc(C#N)c(C(F)(F)F)c1 (centres unmarked) [Example 115, 2-(4-Cyano-3-trifluoromethyl-phenoxy)-pentanoic acid (3-propoxy-propyl)-amide]
pIC50 [1]: 6.37

CCCC(Oc1ccc(C#N)c(C(F)(F)F)c1)C(=O)Nc1ccc(C)c(O)c1 (centres unmarked) [Example 116, 2-(4-Cyano-3-trifluoromethyl-phenoxy)-pentanoic acid (3-hydroxy-4-methyl-phenyl)-amide]
pIC50 [1]: 6.53
